Data taken from article PMC8530378, “Comparison of: (2S,4R)-4-[^18F]Fluoroglutamine, [^11C]Methionine, and 2-Deoxy-2-[^18F]Fluoro-D-Glucose and Two Small-Animal PET/CT Systems Imaging Rat Gliomas” (Frontiers in Oncology, 2021).
Values belong to the compound of their own block, whether it stands above or below them.

Experiments:
orthotopic BT4C gliomas = test: Dynamic PET/CT imaging of orthotopic BT4C gliomas, tumor-to-healthy brain uptake ratio (TBR); type: in vivo; details: dynamic PET images, both cameras pooled, BT4C glioma-bearing BDIX rats
Description: The 16 glioma-bearing BDIX-Ifz rats (herein "BDIX") for imaging studies (8 weeks old, 9 males and 7 females) were anesthetized under 2-2.5% isoflurane and given buprenorphine (0.01 mg/kg) and carprofen (5 mg/kg) for analgesia during surgery. […] All animals were sacrificed after either the final imaging (PET studies) or the final blood sample collection (metabolism studies) under deep isoflurane anesthesia (4%) via cervical dislocation after cardiac puncture to collect terminal blood samples. […] The injected amount of radioactivity also varied based on camera and radionuclide. […] Each PET image was separately examined, in the initial 20 s of frames for the amino-acid-based radiopharmaceuticals and 40-60 min frames for [^18F]FDG, to manually delineate heart left ventricle cavity voxels to use as a blood radioactivity estimation region of interest (ROI). […] The dynamic PET image data was then extracted from each separate image and converted to standardized uptake values (SUV) which account for ROI volume, mean ROI radioactivity, subject weight, and total injected radioactivity dose (corrected for decay, residual syringe and cannula radioactivity). The results are shown as SUV ROI radioactivity curves over time as well as tumor-to-healthy brain region (TBR) ratios for improved comparisons. […]

BT4C gliomas = test: Ex vivo brain autoradiography, tumor-to-healthy brain uptake ratio; type: in vivo; details: ex vivo autoradiography of brain slices, BT4C glioma-bearing BDIX rats
Description: Ex vivo biodistribution studies were performed for [^18F]FGln with a complete organ list and results are listed in the Supplementary Material Some subjects from each radiopharmaceutical imaging group were sacrificed for autoradiographical and histological studies immediately after PET imaging. All autoradiography images were analyzed with Carimas software (Turku PET Centre, Turku, Finland).
The excised brains containing tumors were frozen with liquid nitrogen, sectioned with a Leica CM3050S cryotome into alternating 20 and 8 µm slices on different slides for hematoxylin/eosin and future histochemical staining respectively. […] The slides were then stained with hematoxylin/eosin and digitally scanned with a Pannoramic 250 Flash slide scanner (3DHistech, Budapest, Hungary) Autoradiographs and light micrographs were then aligned in Carimas software (Turku PET Centre, Turku, Finland) and analyzed therein.

[1] = test system: BT4C glioma and healthy brain ROIs; test: Logan plot (reversible uptake model) of dynamic [^18F]FGln PET; type: in vivo, BDIX rats; details: n = 13; for DV (AB): arterial blood radioactivity input; for DV (P): unbound plasma radioactivity fraction input
From the text: (§1) The dynamic PET image data was then extracted from each separate image and converted to standardized uptake values (SUV) which account for ROI volume, mean ROI radioactivity, subject weight, and total injected radioactivity dose (corrected for decay, residual syringe and cannula radioactivity). The results are shown as SUV ROI radioactivity curves over time as well as tumor-to-healthy brain region (TBR) ratios for improved comparisons. [^18F]FGln uptake data and blood radioactivity data (corrected for bioavailability fraction over time) were also input into multiple pharmacokinetic models described in the "[^18F]FGln Pharmacokinetic Modeling" section.
(§2) Blood input values from the heart left ventricle ROI in the PET image data were corrected for bioavailable fraction with Eqn. 2. Logan ([25]), Patlak ([26]), and two two-compartment models ([27]) (reversible and irreversible) were applied to whole-blood, unbound plasma fraction, and unbound plasma fraction assayed for parent-radiopharmaceutical purity as inputs for tumor and healthy brain ROIs. Mean, standard deviation, and two-tailed unpaired Student's t-test (for camera comparison, modeling values, and gender differences) p-values are reported where applicable.

[2] = test system: BT4C glioma and healthy brain ROIs; test: Patlak plot (irreversible uptake model) of dynamic [^18F]FGln PET; type: in vivo, BDIX rats; details: n = 13; for Ic (AB) y intercept: arterial blood input; for Ic (FP) y intercept: free parent plasma input; for Ic (P) y intercept: unbound plasma input
From the text: as §1, §2

[3] = [^18F]FGln in vivo stability analysis (bioavailable fraction of whole blood radioactivity); details: both sexes, BDIX, rat, 40 MBq, healthy BDIX rats, approximately 60 min post-injection, n = 10, read-out: Bioavailable [^18F]FGln-fraction of total blood radioactivity
Description: Additional healthy BDIX rats (n = 10, 5 male, 5 female) were injected with approximately 40 MBq of [^18F]FGln and 150–200 µL aliquots of blood drawn at 5, 15, 30, 45, and 60 min into a heparin coated vial at 5°C to be assayed. During the final 60 min collection time point, animals were sacrificed under deep anesthesia via cardiac puncture and cervical dislocation. All radioactivity measurements were performed with a 3″ Nal system (Triathler, Hidex Oy, Turku Finland). Whole blood was weighed and measured for radioactivity before being centrifuged at 700 ×g and 4°C for 5 min. The plasma was separated out before being weighed and gamma counted followed by storage on ice for the later described assays. Hematocrit values used were averaged separately for male and female populations with five samples for each group. The following Equation 1 ([23]) was then used to calculate the radioactivity fraction taken up by the red blood cells and the available plasma fraction to avoid including plasma contamination in the blood cell fraction: […]
Where C = radioactivity concentration, ρ = density, RBC = red blood cell, and HCT = hematocrit. […]
Plasma aliquots (80 µL) were then precipitated with methanol (200 µL) before being vortexed thoroughly and centrifuged at 11,000 ×g for 10 min. The two fractions were separated and measured for radioactivity to calculate the unbound radioactivity fraction of the plasma. […]

[4] = test system: BT4C glioma and healthy brain ROIs; test: Reversible two-tissue compartment model of dynamic [^18F]FGln PET; type: in vivo, BDIX rats; details: reversible 2-tissue model, n = 13; for K1 (AB) plasma to tissue transport rate / K1/k2 (AB) equilibrium distribution volume / k3 (AB) rate constant / k3/k4 (AB): arterial blood input; for K1 (FP) plasma to tissue transport rate / K1/k2 (FP) equilibrium distribution volume / k3 (FP) rate constant / k3/k4 (FP): free parent plasma input; for K1 (P) plasma to tissue transport rate / K1/k2 (P) equilibrium distribution volume / k3 (P) rate constant / k3/k4 (P): unbound plasma input
From the text: as §1, §2

[5] = test system: BT4C glioma and healthy brain ROIs; test: Irreversible two-tissue compartment model of dynamic [^18F]FGln PET; type: in vivo, BDIX rats; details: irreversible 2-tissue model, n = 13; for K1 (AB) plasma to tissue transport rate / K1/k2 (AB) equilibrium distribution volume / k3 (AB) rate constant / k3/(k2+k3) (AB): arterial blood input; for K1 (FP) plasma to tissue transport rate / K1/k2 (FP) equilibrium distribution volume / k3 (FP) rate constant / k3/(k2+k3) (FP): free parent plasma input; for K1 (P) plasma to tissue transport rate / K1/k2 (P) equilibrium distribution volume / k3 (P) rate constant / k3/(k2+k3) (P): unbound plasma input
From the text: as §1, §2

Average tumor-to-healthy brain tissue uptake ratio (TBR), maximum (orthotopic BT4C gliomas): 1.41 ± 0.11
Tumor-to-healthy brain uptake ratio (BT4C gliomas): 2.93 ± 0.57
Compound: 2-deoxy-2-[^18F]fluoro-D-glucose [[^18F]FDG]

Tumor DV/Healthy Brain DV (FP) ([1]; free parent plasma input): 2.31 ± 0.40
DV (AB) ([1]; healthy brain ROI): 0.66 ± 0.19
DV (FP) ([1]; healthy brain ROI, free parent plasma input): 1.72 ± 0.66
DV (P) ([1]; healthy brain ROI): 0.48 ± 0.14
DV (AB) ([1]; tumor ROI): 1.35 ± 0.36
DV (FP) ([1]; tumor ROI, free parent plasma input): 4.00 ± 1.96
DV (P) ([1]; tumor ROI): 1.00 ± 0.30
Ic (AB) y intercept ([2]; healthy brain): 0.376 ± 0.114
Ic (FP) y intercept ([2]; healthy brain): 0.495 ± 0.195
Ic (P) y intercept ([2]; healthy brain): 0.236 ± 0.076
Ic (AB) y intercept ([2]; tumor): 0.676 ± 0.221
Ic (FP) y intercept ([2]; tumor): 0.823 ± 0.376
Ic (P) y intercept ([2]; tumor): 0.418 ± 0.149
Average tumor-to-healthy brain tissue uptake ratio (TBR), maximum (orthotopic BT4C gliomas): 1.99 ± 0.19
bioavailability at 60 min [3]: 28.1%
K1 (AB) plasma to tissue transport rate ([4]; healthy brain): 0.118 ± 0.132 mL min^-1 mL^-1
K1/k2 (AB) equilibrium distribution volume ([4]; healthy brain): 0.248 ± 0.128 mL mL^-1
k3 (AB) rate constant ([4]; healthy brain): 0.060 ± 0.039 min⁻¹
k3/k4 (AB) ([4]; healthy brain): 3.279 ± 1.395 min min^-1
K1 (FP) plasma to tissue transport rate ([4]; healthy brain): 0.033 ± 0.023 mL min^-1 mL^-1
K1/k2 (FP) equilibrium distribution volume ([4]; healthy brain): 0.528 ± 0.363 mL mL^-1
k3 (FP) rate constant ([4]; healthy brain): 0.196 ± 0.354 min⁻¹
k3/k4 (FP) ([4]; healthy brain): 4.462 ± 1.312 min min^-1
K1 (P) plasma to tissue transport rate ([4]; healthy brain): 0.041 ± 0.031 mL min^-1 mL^-1
K1/k2 (P) equilibrium distribution volume ([4]; healthy brain): 0.137 ± 0.062 mL mL^-1
k3 (P) rate constant ([4]; healthy brain): 0.086 ± 0.039 min⁻¹
k3/k4 (P) ([4]; healthy brain): 4.021 ± 1.249 min min^-1
K1 (AB) plasma to tissue transport rate ([4]; tumor): 0.133 ± 0.079 mL min^-1 mL^-1
K1/k2 (AB) equilibrium distribution volume ([4]; tumor): 0.551 ± 0.221 mL mL^-1
k3 (AB) rate constant ([4]; tumor): 0.073 ± 0.054 min⁻¹
k3/k4 (AB) ([4]; tumor): 2.901 ± 1.331 min min^-1
K1 (FP) plasma to tissue transport rate ([4]; tumor): 0.057 ± 0.023 mL min^-1 mL^-1
K1/k2 (FP) equilibrium distribution volume ([4]; tumor): 1.646 ± 2.403 mL mL^-1
k3 (FP) rate constant ([4]; tumor): 0.291 ± 0.481 min⁻¹
k3/k4 (FP) ([4]; tumor): 4.466 ± 1.378 min min^-1
K1 (P) plasma to tissue transport rate ([4]; tumor): 0.052 ± 0.026 mL min^-1 mL^-1
K1/k2 (P) equilibrium distribution volume ([4]; tumor): 0.331 ±0.125 mL mL^-1
k3 (P) rate constant ([4]; tumor): 0.231 ± 0.478 min⁻¹
k3/k4 (P) ([4]; tumor): 3.191 ± 1.559 min min^-1
Tumor-to-healthy brain uptake ratio (BT4C gliomas): 4.07 ± 0.49
K1 (AB) plasma to tissue transport rate ([5]; healthy brain): 0.063 ± 0.053 mL min^-1 mL^-1
K1/k2 (AB) equilibrium distribution volume ([5]; healthy brain): 0.338 ± 0.159 mL mL^-1
k3 (AB) rate constant ([5]; healthy brain): 0.022 ± 0.010 min⁻¹
k3/(k2+k3) (AB) ([5]; healthy brain): 0.126 ± 0.068 min min^-1
K1 (FP) plasma to tissue transport rate ([5]; healthy brain): 0.033 ± 0.018 mL min^-1 mL^-1
K1/k2 (FP) equilibrium distribution volume ([5]; healthy brain): 0.524 ± 0.324 mL mL^-1
k3 (FP) rate constant ([5]; healthy brain): 0.064 ± 0.063 min⁻¹
k3/(k2+k3) (FP) ([5]; healthy brain): 0.420 ± 0.146 min min^-1
K1 (P) plasma to tissue transport rate ([5]; healthy brain): 0.024 ± 0.017 mL min^-1 mL^-1
K1/k2 (P) equilibrium distribution volume ([5]; healthy brain): 0.221 ± 0.105 mL mL^-1
k3 (P) rate constant ([5]; healthy brain): 0.028 ± 0.014 min⁻¹
k3/(k2+k3) (P) ([5]; healthy brain): 0.215 ± 0.096 min min^-1
K1 (AB) plasma to tissue transport rate ([5]; tumor): 0.088 ± 0.039 mL min^-1 mL^-1
K1/k2 (AB) equilibrium distribution volume ([5]; tumor): 0.876 ± 0.29 mL mL^-1
k3 (AB) rate constant ([5]; tumor): 0.017 ± 0.005 min⁻¹
k3/(k2+k3) (AB) ([5]; tumor): 0.156 ± 0.078 min min^-1
K1 (FP) plasma to tissue transport rate ([5]; tumor): 0.083 ± 0.113 mL min^-1 mL^-1
K1/k2 (FP) equilibrium distribution volume ([5]; tumor): 1.841 ± 0.967 mL mL^-1
k3 (FP) rate constant ([5]; tumor): 0.105 ± 0.246 min⁻¹
k3/(k2+k3) (FP) ([5]; tumor): 0.385 ± 0.157 min min^-1
K1 (P) plasma to tissue transport rate ([5]; tumor): 0.037 ± 0.015 mL min^-1 mL^-1
K1/k2 (P) equilibrium distribution volume ([5]; tumor): 0.685 ± 0.330 mL mL^-1
k3 (P) rate constant ([5]; tumor): 0.017 ± 0.007 min⁻¹
k3/(k2+k3) (P) ([5]; tumor): 0.226 ± 0.078 min min^-1
Compound: NC(=O)[C@H]([18F])C[C@H](N)C(=O)O [[^18F]FGln, (2S,4R)-4-[^18F]Fluoroglutamine]
